Experimental data from patent US20060276393A1, “Novel compositions for preventing and treating neurodegenerative and blood coagulation disorders” (Sirtris Pharmaceuticals, Inc., priority 2005, published 2006).

Assays:
recombinant GST-Sir2 = recombinant GST-Sir2 (Saccharomyces cerevisiae, UniProt P06700); test: Sir2 deacetylation rate assay; assay type: biochemical, S. cerevisiae; settings: in vitro dose-response
Protocol: Average lifespan for wild type, 22.9 generations, quercetin, 23.4; piceatannol.
His6-tagged recombinant SIRT1 and GST-tagged recombinant Sir2 were prepared as previously described^26. From 0.1 to 1 μg of SIRT1 and 1.5 μg of Sir2 were used per deacetylation assay (in 50 μl total reaction) as previously described^26. SIRT1 assays and certain of those for Sir2 employed the p53-382 acetylated substrate (° Fluor de Lys-SIRT1′, BIOMOL) rather than FdL.
Themed compound libraries (BIOMOL) were used for primary and secondary screening. Most polyphenol compounds were dissolved at 10 mM in dimethylsulfoxide (DMSO) on the day of the assay. For water soluble compounds and negative controls, 1% v/v DMSO was added to the assay. In vitro fluorescence assay results were read in white ½-volume 96-well microplates (Coming Costar 3693) with a CytoFluor™. II fluorescence plate reader (PerSeptive Biosystems, Ex. 360 nm, Em. 460 nm, gain=85). HeLa cells were grown and the cellular deacetylation assays were performed and read, as above, but in full-volume 96-well microplates (Coming Costar 3595). […] Calculation of net fluorescence increases included subtraction of a blank value, which in the case of Sir2 was obtained by omitting the enzyme from the reaction and in the case of SIRT1 by adding an inhibitor (200 μM suramin or 1 mM nicotinamide) to the reaction prior to the acetylated substrate. […]

[1] = target: T1, SIRT1 deacetylase (BIOMOL) (Homo sapiens, UniProt Q96EB6); test: High-throughput SIRT1 screening protocol (ICCB library); assay type: biochemical; settings: positive controls; 200 μM NAD+, 5 μM Fluor de Lys-SIRT1; resveratrol 50 μM
T1 construct: purchased BIOMOL
T1 sequence (Q96EB6 1-747): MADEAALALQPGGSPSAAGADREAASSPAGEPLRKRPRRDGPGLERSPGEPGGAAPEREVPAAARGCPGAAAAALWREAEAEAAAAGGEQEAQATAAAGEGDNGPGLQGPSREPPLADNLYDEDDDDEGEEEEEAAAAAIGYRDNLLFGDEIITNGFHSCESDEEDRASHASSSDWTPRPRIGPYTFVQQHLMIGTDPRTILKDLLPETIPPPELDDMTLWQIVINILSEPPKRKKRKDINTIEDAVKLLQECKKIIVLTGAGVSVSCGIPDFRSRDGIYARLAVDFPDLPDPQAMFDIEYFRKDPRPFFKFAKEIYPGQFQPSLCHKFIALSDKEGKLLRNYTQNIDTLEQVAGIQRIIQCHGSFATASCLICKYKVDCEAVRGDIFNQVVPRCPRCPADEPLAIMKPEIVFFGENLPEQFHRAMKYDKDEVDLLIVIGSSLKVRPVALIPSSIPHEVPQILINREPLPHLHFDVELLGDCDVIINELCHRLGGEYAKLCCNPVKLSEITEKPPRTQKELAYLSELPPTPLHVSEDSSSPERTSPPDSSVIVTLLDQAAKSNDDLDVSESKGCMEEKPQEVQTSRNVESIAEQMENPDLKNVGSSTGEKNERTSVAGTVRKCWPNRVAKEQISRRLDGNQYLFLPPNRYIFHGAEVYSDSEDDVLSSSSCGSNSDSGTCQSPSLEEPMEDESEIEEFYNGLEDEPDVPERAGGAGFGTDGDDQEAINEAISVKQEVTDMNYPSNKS
Protocol: The reaction mixture contains (final): 0.5 units/reaction SIRT1 deacetylase (BIOMOL); 200 μM NAD^+; 5 μM Fluor de Lys-SIRT1 substrate (BIOMOL); buffer (25 mM Tris/Cl, pH 8.0, 137 mM NaCl, 2.7 mM KCl, 1 mM MgCl2, and 1 mg/ml BSA). In addition, a reaction mixture containing no enzyme was made so that each well receiving compound has a corresponding “no enzyme control” well. Reactions were performed in black 384 well plates (NUNC) in a final volume of 25 μl/well.
The reactions were started by combining enzyme and substrate in a reaction mixture immediately prior to aliquoting in plates (or substrate only for “no enzyme control” plates). Mixture were aliquoted to plates using Biotek μfill (Biotek Instruments). Control mixtures were manually added to designated wells. A library compound was added at a desired concentration by pin transfer to both “with enzyme” and “no enzyme” plates. Compounds were added in at least triplicate (with enzyme reaction in duplicate and no enzyme controls) at a final concentration of roughly 50 μM. The plates were incubated at 37° C for 30-60 minutes. Then 25 μl of 1× Developer II (BIOMOL) plus 2 mM nicotinamide were added to all wells to stop the reactions. The reactions were left for at least 30 minutes at 37° C. for the signal to develop. The plates were read in a microplate-reading fluorometer capable of excitation at a wavelength in the range of 350-380 nm and detection of emitted light in the range of 440-460 nm. A read time of 0.1 sec per well was used.

C. elegans = C. elegans lifespan; assay type: in vivo
Protocol: Thus, the presence of resveratrol in the growth media of C. elegans extends their lifespan.
Bristol N2 (Caenorhabditis Genetics Center) was used as the wild-type strain. The sir-2.1 mutant strain was generated by backcrossing VC199 (sir-2.1(ok434)) to N2 four times. Cultures were grown on standard NGM media and maintained on E. coli strain OP50. For the lifespan assays, synchronized animals were transferred to treatment plates as young adults (2 d after hatching, day 0 of assay), and were transferred to fresh treatment plates every 2 days for the first 6 to 8 days of the assay. […] For some lifespan trials, heat-killed OP50 were used as a food source. OP50 cultures were heated to 65° C. for 30 minutes, then pelleted and resuspended in 1/10 volume in S Basal supplemented with 10 mM MgSO4. In all assays, worms were monitored daily for mortality by gently probing with a platinum pick. Assays were performed at 24° C. To assay worm feeding rates, worms at the indicated stages were placed on treatment plates (no FUdR) for 4-5 hours, then videoed for 1 minute using a Pixelink PL-662 camera. The frame rate was slowed and the pumping rate of the pharynx was counted. To assay fecundity, gravid hermaphrodites (5 per plate, raised from synchronized L1s on normal or treatment plates) were allowed to lay eggs on their respective media for 5 hours, and the total number of eggs was counted.

recombinant GST-Sir2, sequence (P06700 whole entry): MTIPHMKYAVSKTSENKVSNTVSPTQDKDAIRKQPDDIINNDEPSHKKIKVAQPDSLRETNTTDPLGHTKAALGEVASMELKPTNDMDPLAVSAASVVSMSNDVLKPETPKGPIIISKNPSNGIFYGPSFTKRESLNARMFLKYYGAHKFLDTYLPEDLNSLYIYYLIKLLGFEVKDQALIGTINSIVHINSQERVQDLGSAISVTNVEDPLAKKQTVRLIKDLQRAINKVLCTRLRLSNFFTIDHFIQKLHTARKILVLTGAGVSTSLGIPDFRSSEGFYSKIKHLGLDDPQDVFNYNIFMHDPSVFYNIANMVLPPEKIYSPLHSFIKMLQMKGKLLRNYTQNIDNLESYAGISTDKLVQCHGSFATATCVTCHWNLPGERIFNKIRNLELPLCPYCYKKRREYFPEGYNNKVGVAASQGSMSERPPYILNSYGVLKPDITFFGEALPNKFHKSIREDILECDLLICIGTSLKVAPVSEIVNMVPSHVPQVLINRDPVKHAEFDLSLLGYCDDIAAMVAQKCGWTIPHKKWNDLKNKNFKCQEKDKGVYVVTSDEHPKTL

Oc1ccc(/C=C/c2cc(O)cc(O)c2)cc1 [Resveratrol, 3,5,4′-Trihydroxy-trans-stilbene]
concentrations at which inhibition of Sir2 was seen (recombinant GST-Sir2): > 100 µM
optimum concentration of activator for Sir2 stimulation (recombinant GST-Sir2): 2 to 5 µM
activated SIRT1 [1]: 2.2 fold
worms alive on day 17 (C. elegans; 50 worms strain N2, 100 μM, control 5 alive): 17 worms
lifespan extension (C. elegans; sir-2.1 mutants, 100 μM, heat-killed OP50, not statistically significant): 5.2%
lifespan extension (C. elegans; sir-2.1 mutants, 100 μM, live OP50, P=0.81): 3.3%
lifespan extension (C. elegans; wild-type N2, 100 μM, live OP50): 12.6%
lifespan extended (maximum) (C. elegans; wild-type worms, 100 μM, heat-killed or live E. coli): up to 15%
